No end group written: not given here.
Key:
[1] = test system: tumor microenvironment (TME) in rGBM; assay: IHC and multiplex ion beam imaging of immune cells in rGBM tumor biopsy pair; type: in vivo, human; details: rGBM subject with CR
Description: FIG. 11C is a bar graph of the change in the percentage of M1 and M2 macrophages in patient tumor tissue as determined by metal ion immunostaining.
FIG. 11E is a bar graph depicting the fold-change in cytotoxic T lymphocytes (CTLs) in patients prior to the onset of treatment with VT1021 (pre-treatment) and during treatment with VT1021 (On-Study) as determined by metal ion immunostaining.
FIG. 11F is a bar graph depicting the fold-change in total and monocytic myeloid derived suppressor cells (MDSCs) in patients prior to the onset of treatment with VT1021 (pre-treatment) and during treatment with VT1021 (On-Study) as determined by metal ion immunostaining.
(§1) The blood samples were collected from GBM subjects in the expansion phase, who were treated by VT1021 at 11.8 mg/kg, twice weekly, by IV infusion. VT1021 levels were measured and analyzed among male and female subjects (FIG. 7). Days on study have been collected from the same group of subjects (FIG. 8). […] CD36 and CD47 levels have been measured by immunohistochemistry assays in the pre-treatment tumor biopsy samples of the GBM subjects (FIG. 9, FIG. 10). Levels of Tsp-1 were measured by ELISA for circulating Tsp-1 levels in the collected blood samples, and by immunohistochemistry for the level of Tsp-1 accumulated in the tumor biopsy samples (FIG. 10). The infiltration of immune and inflammatory cells, specifically, MDSCs, T cells and macrophages, were determined by immunohistochemical analysis of the levels of cell surface markers in the tumor biopsy samples of subjects (FIG. 11).
(§2) FIG. 11A, FIG. 11B, FIG. 11C, FIG. 11D, FIG. 11E, and FIG. 11F are charts showing modulation of the immune system by VT1021 in circulation and in the TME. […] Proliferating CTLs increased ≥1.5 fold regardless of clinical response, proliferating helper T cells increased ≥1.5 fold in CR/PR and PD subjects while monocytic MDSCs (mMDSCs) and activated MDSCs decreased≤0.5 fold in all evaluable subjects. […] Percent of M1 increased 1.9-fold while M2 decreased 0.6-fold after treatment. […] CTLs increased >4 fold while total and mMDSCs […] >15 fold in the on-study biopsy compared to pre-treatment.

[2] = test system: GBM; assay: Example 4: treatment of GBM with dually elevated CD36 and CD47; type: in vivo; details: expected
Description: (§3) Subjects having GBM are identified using standard clinical protocols. Samples are obtained and levels of CD36 and CD47 measured using methods known in the art. Subjects presenting with dually elevated CD36 and CD47 levels as compared to suitable controls are selected for dosing with VT1021. Subjects advancing to the treatment phase are administered VT1021. Frequency and dosage are determined in accordance with the stage and severity of disease accordingly to methods standard in the art. Tumor burden and other disease indicators are measured and data compiled using methods known in the art.

[3] = test system: recurrent GBM (rGBM); assay: Phase I/II clinical study: clinical response and duration of treatment in recurrent GBM; type: in vivo, human
Description: VT1021 was evaluated in a recently completed phase I/II open-label, multicenter, dose escalation (Part 1) and expansion (Part 2) clinical study in advanced, refractory, solid tumors including recurrent GBM (rGBM) (NCT03364400). Thirty-two subjects with rGBM were dosed in Part 2, 22 of which were considered evaluable as having completed ≥1 cycle of VT1021 treatment and tumor imaging during cycle 2. […] The blood samples were collected from GBM subjects in the expansion phase, who were treated by VT1021 at 11.8 mg/kg, twice weekly, by IV infusion. VT1021 levels were measured and analyzed among male and female subjects (FIG. 7). Days on study have been collected from the same group of subjects (FIG. 8). […] CD36 and CD47 levels have been measured by immunohistochemistry assays in the pre-treatment tumor biopsy samples of the GBM subjects (FIG. 9, FIG. 10). Levels of Tsp-1 were measured by ELISA for circulating Tsp-1 levels in the collected blood samples, and by immunohistochemistry for the level of Tsp-1 accumulated in the tumor biopsy samples (FIG. 10). The infiltration of immune and inflammatory cells, specifically, MDSCs, T cells and macrophages, were determined by immunohistochemical analysis of the levels of cell surface markers in the tumor biopsy samples of subjects (FIG. 11). […] Among 22 evaluable rGBM subjects, 3 had complete response (CR), 1 had partial response (PR), and 7 had stable disease (SD) with an average study duration of over 203 days. The overall disease control rate (DCR) was 50%. […] Of the 11 CR/PR/SDs, 6 were dual high (55%). […] Complete response scan images and lesion shrinkage for 1 of 3 subjects who achieved CR.

[4] = test system: circulating immune cells (CTLs, helper T cells, MDSCs); assay: Flow cytometry of immune cells isolated from whole blood of rGBM subjects; type: in vivo, human; details: Cycle 1 Day 1
Description: as §2

[5] = test system: TSP-1; assay: Immunohistochemistry and pathological examination of pre-treatment and on-study rGBM tumor biopsy; type: in vivo, human; details: subject with rGBM who achieved CR
Description: (§4) FIG. 10 is a chart showing that VT1021 induces TSP-1 in the circulation and the TME. (A) Bar graph of Tsp-1 protein levels measured by ELISA in circulating MDSCs collected prior to (baseline) and after (induction) treatment with VT1021 from patients who experienced complete or partial response, stable disease, or progressive disease; (B) H&E and immunohistochemical analysis of patient tumor tissue prior to onset (pre) or during treatment with VT1021; (C) Immunohistochemical analysis depicting representative images of high levels of CD36 and CD47.
as §1, with “7).” for “7). Days on study have been collected from the same group of subjects (FIG. 8).”

[6] = test system: TSP-1; assay: TSP-1 protein by ELISA in peripheral blood mononuclear cells of rGBM subjects; type: in vivo, human; details: all evaluable subjects with rGBM
Description: as §4
as §1, with “7).” for “7). Days on study have been collected from the same group of subjects (FIG. 8).”

[7] = test system: pancreatic cancer; assay: Example 3: treatment of pancreatic cancer with dually elevated CD36 and CD47; type: in vivo; details: expected
Description: as §3, with “pancreatic cancer” for “GBM”

[8] = on-study biopsy vs pre-treatment, multiplex ion beam imaging, increased
[9] = among 22 evaluable rGBM subjects
[10] = among the 9 CD36/CD47 dual-high rGBM subjects
[11] = the 9 CD36/CD47 dual-high rGBM subjects
[12] = whole blood before and after 6 hours, all evaluable subjects, decreased

**Q.** Which “M2 macrophages, fold change” value ([1]; biopsy pair pre-treatment vs on-study, decreased) does the source give for “cyclic DWLPK (also: cyclic, mode of cyclisation not given here) [VT1021, 5-amino acid cyclic peptide from prosaposin; Tsp-1-inducing agent]” here?
**A.** 0.6 fold

**Q.** What about the “Percent of M1 macrophages, fold change” value ([1]; biopsy pair pre-treatment vs on-study, increased) of the same substance?
**A.** 1.9 fold

**Q.** And the “CTLs, fold change” value [1, 8]?
**A.** > 4 fold

**Q.** What about the “mMDSCs, fold change” value [1, 8] of the same substance?
**A.** > 15 fold

**Q.** And the “total MDSCs, fold change” value [1, 8]?
**A.** > 15 fold

**Q.** What about the “tumor burden compared to control subjects” value [2] of the same substance?
**A.** reduction in tumor burden

**Q.** And the “treatment until lesion no longer measurable” value ([3]; 1 CR rGBM subject, MRI lesion measurement)?
**A.** 9 cycles

**Q.** What about the time on study ([3]; 1 CR rGBM subject, still on-going) of the same substance?
**A.** 476 days

**Q.** And the “overall disease control rate (DCR)” value ([3]; 22 evaluable rGBM subjects)?
**A.** 50%

**Q.** And the “subjects with complete response (CR)” value [3, 9]?
**A.** 3

**Q.** What about the “subjects with partial response (PR)” value [3, 9] of the same substance?
**A.** 1

**Q.** What about the “subjects achieving CR” value [3, 10] of the same substance?
**A.** 3

**Q.** And the “subjects achieving SD” value [3, 10]?
**A.** 3 subjects

**Q.** What about the average study duration ([3]; rGBM subjects with CR, PR or SD) of the same substance?
**A.** over 203 days

**Q.** And the DCR [3, 11]?
**A.** 67%

**Q.** And the overall response rate [3, 11]?
**A.** 33.3%

**Q.** What about the “Proliferating CTLs, fold change” value ([4]; whole blood before and after 6 hours of treatment, regardless of clinical response, increased) of the same substance?
**A.** ≥ 1.5 fold

**Q.** And the “proliferating helper T cells, fold change” value ([4]; whole blood before and after 6 hours, CR/PR and PD subjects, increased)?
**A.** ≥ 1.5 fold

**Q.** And the “activated MDSCs, fold change” value [4, 12]?
**A.** ≤ 0.5 fold

**Q.** What about the “monocytic MDSCs (mMDSCs), fold change” value [4, 12] of the same substance?
**A.** ≤ 0.5 fold

**Q.** And the “TSP-1 in the on-study biopsy” value [5]?
**A.** TSP-1 induction

**Q.** And the “tumor cells by pathological examination of the on-study biopsy” value [5]?
**A.** No tumor cells were detected

**Q.** What about the “TSP-1 protein in peripheral blood mononuclear cells (PBMCs)” value [6] of the same substance?
**A.** induced

**Q.** And the “tumor burden compared to control subjects” value [7]?
**A.** reduction in tumor burden

Reference: patent US20250041379A1, “METHODS AND COMPOSITIONS FOR THE TREATMENT OF CANCER” (Vigeo Therapeutics, Inc., priority 2021, published 2025)
